Experiments:
Test in all cases: Test E greenhouse herbicide test, pre- and postemergence
Type in all cases: in vivo
[1] = tested on: arrowleaf sida (Sida rhombifolia)
Outline: (§1)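 Seedlings reaching 2–18 cm (1- to 4-leaf stage) received foliar treatment, while seeds in silt loam received a soil surface spray; the vehicle in each case was a non-phytotoxic solvent mixture including surfactant. Visual scoring versus controls followed 14–21 d later on a 0–100 scale.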

[2] = tested on: beggarticks (hairy beggarticks, Bidens pilosa)
Outline: as §1

[3] = tested on: corn (Zea mays)
Outline: as §1

[4] = tested on: crabgrass, Brazilian (Brazilian crabgrass, Digitaria horizontalis)
Outline: as §1

[5] = tested on: foxtail, giant (giant foxtail, Setaria faberii); details: Preemergence
Outline: as §1

[6] = tested on: goosegrass (Eleusine indica); details: Preemergence
Outline: as §1

[7] = tested on: johnsongrass (Sorghum halepense); details: Preemergence
Outline: as §1

[8] = tested on: kochia (Kochia scoparia)
Outline: as §1

[9] = tested on: lambsquarters (Chenopodium album); details: Preemergence
Outline: as §1

[10] = tested on: nightshade (eastern black nightshade, Solanum ptycanthum); details: Preemergence
Outline: as §1

[11] = tested on: panicum, fall (fall panicum, Panicum dichotomiflorum)
Outline: as §1

[12] = tested on: pigweed, palmer (palmer pigweed, Amaranthus palmeri)
Outline: as §1

[13] = tested on: ragweed (common ragweed, Ambrosia elatior)
Outline: as §1

[14] = tested on: sandbur (southem sandbur, Cenchrus echinatus)
Outline: as §1

[15] = tested on: soybean (Glycine max)
Outline: as §1

[16] = tested on: surinam grass (Brachiaria decumbens); details: Preemergence
Outline: as §1

[17] = tested on: velvetleaf (Abutilon theophrasti); details: Preemergence
Outline: as §1

[18] = 62 g ai/ha, Postemergence, scale 0 to 100 (0 no effect, 100 complete control)
[19] = 62 g ai/ha, Preemergence, scale 0 to 100 (0 no effect, 100 complete control)
[20] = 125 g ai/ha, Postemergence, scale 0 to 100 (0 no effect, 100 complete control)
[21] = 125 g ai/ha, Preemergence, scale 0 to 100 (0 no effect, 100 complete control)
[22] = 250 g ai/ha, Postemergence, scale 0 to 100 (0 no effect, 100 complete control)
[23] = Postemergence, 31 g ai/ha, visual, scale 0 no effect to 100 complete control
[24] = Preemergence, 31 g ai/ha, scale 0 to 100, 0 no effect, 100 complete control
[25] = Preemergence, 250 g ai/ha, visual, scale 0 no effect to 100 complete control
[26] = 62 g ai/ha, scale 0 to 100 (0 no effect, 100 complete control)
[27] = 125 g ai/ha, scale 0 to 100 (0 no effect, 100 complete control)
[28] = 31 g ai/ha, scale 0 to 100, 0 no effect, 100 complete control
[29] = 250 g ai/ha, visual, scale 0 no effect to 100 complete control

CCOC(=O)Oc1c(C)nn(C)c(=O)c1-c1c(C)sc2ccc(C)cc12 [Compound 82]
40: Plant response rating, Soybean [15, 20]
80: Plant response rating, Arrowleaf Sida [1, 20] | Plant response rating, Ragweed [13, 19]
10: Plant response rating, Soybean [15, 23]
70: Plant response rating, Arrowleaf Sida [1, 18] | Plant response rating, Arrowleaf Sida [1, 19] | Plant response rating, Goosegrass [6, 27] | Plant response rating, Panicum, Fall [11, 23] | Plant response rating, Sandbur [14, 20]
25: Plant response rating, Goosegrass [6, 26]
95: Plant response rating, Arrowleaf Sida [1, 25] | Plant response rating, Foxtail, Giant [5, 29] | Plant response rating, Kochia [8, 20] | Plant response rating, Panicum, Fall [11, 19] | Plant response rating, Velvetleaf [17, 27]
75: Plant response rating, Crabgrass, Brazil [4, 24] | Plant response rating, Lambsquarters [9, 26] | Plant response rating, Panicum, Fall [11, 20] | Plant response rating, Panicum, Fall [11, 22] | Plant response rating, Pigweed, Palmer [12, 20] | Plant response rating, Sandbur [14, 22] | Plant response rating, Sandbur [14, 25] | Plant response rating, Velvetleaf [17, 26]
98: Plant response rating, Beggarticks [2, 20] | Plant response rating, Beggarticks [2, 22] | Plant response rating, Kochia [8, 18] | Plant response rating, Kochia [8, 22] | Plant response rating, Lambsquarters [9, 28] | Plant response rating, Nightshade [10, 26] | Plant response rating, Nightshade [10, 27] | Plant response rating, Panicum, Fall [11, 21] | Plant response rating, Velvetleaf [17, 29]
30: Plant response rating, Crabgrass, Brazil [4, 18] | Plant response rating, Foxtail, Giant [5, 28]
100: Plant response rating, Beggarticks [2, 19] | Plant response rating, Beggarticks [2, 21] | Plant response rating, Beggarticks [2, 24] | Plant response rating, Beggarticks [2, 25] | Plant response rating, Crabgrass, Brazil [4, 19] | Plant response rating, Crabgrass, Brazil [4, 21] | Plant response rating, Crabgrass, Brazil [4, 25] | Plant response rating, Kochia [8, 21] | Plant response rating, Kochia [8, 25] | Plant response rating, Lambsquarters [9, 27] | Plant response rating, Lambsquarters [9, 29] | Plant response rating, Nightshade [10, 29] | Plant response rating, Panicum, Fall [11, 25] | Plant response rating, Pigweed, Palmer [12, 21] | Plant response rating, Pigweed, Palmer [12, 25] | Plant response rating, Ragweed [13, 21] | Plant response rating, Ragweed [13, 25]
5: Plant response rating, Corn [3, 25]
35: Plant response rating, Johnsongrass [7, 27] | Plant response rating, Sandbur [14, 19] | Plant response rating, Soybean [15, 22] | Plant response rating, Surinam Grass [16, 28]
20: Plant response rating, Arrowleaf Sida [1, 24] | Plant response rating, Crabgrass, Brazil [4, 23] | Plant response rating, Goosegrass [6, 28] | Plant response rating, Kochia [8, 24]
65: Plant response rating, Arrowleaf Sida [1, 23] | Plant response rating, Foxtail, Giant [5, 26] | Plant response rating, Panicum, Fall [11, 18] | Plant response rating, Pigweed, Palmer [12, 22] | Plant response rating, Surinam Grass [16, 26]
0: Plant response rating, Corn [3, 18] | Plant response rating, Corn [3, 19] | Plant response rating, Corn [3, 20] | Plant response rating, Corn [3, 21] | Plant response rating, Corn [3, 22] | Plant response rating, Corn [3, 23] | Plant response rating, Corn [3, 24] | Plant response rating, Johnsongrass [7, 28] | Plant response rating, Sandbur [14, 24] | Plant response rating, Soybean [15, 19] | Plant response rating, Soybean [15, 21] | Plant response rating, Soybean [15, 24] | Plant response rating, Velvetleaf [17, 28]
50: Plant response rating, Crabgrass, Brazil [4, 20] | Plant response rating, Crabgrass, Brazil [4, 22] | Plant response rating, Foxtail, Giant [5, 27] | Plant response rating, Johnsongrass [7, 29] | Plant response rating, Pigweed, Palmer [12, 23] | Plant response rating, Sandbur [14, 23]
85: Plant response rating, Arrowleaf Sida [1, 21] | Plant response rating, Ragweed [13, 23] | Plant response rating, Ragweed [13, 24] | Plant response rating, Surinam Grass [16, 27]
90: Plant response rating, Arrowleaf Sida [1, 22] | Plant response rating, Beggarticks [2, 18] | Plant response rating, Beggarticks [2, 23] | Plant response rating, Goosegrass [6, 29] | Plant response rating, Kochia [8, 19] | Plant response rating, Kochia [8, 23] | Plant response rating, Nightshade [10, 28] | Plant response rating, Panicum, Fall [11, 24] | Plant response rating, Pigweed, Palmer [12, 19] | Plant response rating, Pigweed, Palmer [12, 24] | Plant response rating, Ragweed [13, 18] | Plant response rating, Ragweed [13, 20] | Plant response rating, Ragweed [13, 22] | Plant response rating, Surinam Grass [16, 29]
60: Plant response rating, Pigweed, Palmer [12, 18] | Plant response rating, Sandbur [14, 21]
